Laboratory results: a compilation of properties of binary mixtures (doi:10.1016/j.molliq.2018.09.007)

Assay: xn = mol fraction of the nth substance listed
Conditions: 100 kPa

CN(C)C=O + CC[n+]1ccn(C)c1.O=S(=O)([O-])C(F)(F)F
x1 = 1
Conditions	speed of sound [m/s]	viscosity [mPa·s]
303.15 K	1449.1	0.77
308.15 K	1435.2	0.72
313.15 K	1421.2	0.69
318.15 K	1407.2	0.65
323.15 K	1393.6	0.62

OCCO + CC[n+]1ccn(C)c1.O=S(=O)([O-])C(F)(F)F
x1 = 1
Conditions	speed of sound [m/s]	viscosity [mPa·s]
298.15 K	1655	16.39
303.15 K	1643.2	13.49
313.15 K	1619.7	9.34
323.15 K	1596.1	6.75

CC[n+]1ccn(C)c1.O=S(=O)([O-])C(F)(F)F + CN(C)C=O
Conditions	speed of sound [m/s]	viscosity [mPa·s]
298.15 K, x2 = 0.0917	1438.8	36.96
298.15 K, x2 = 0.2995	1444	20.94
298.15 K, x2 = 0.406	1446	14.56
298.15 K, x2 = 0.5094	1448.4	8.77
298.15 K, x2 = 0.5976	1450.6	6.17
298.15 K, x2 = 0.6947	1453.4	3.45
298.15 K, x2 = 0.7981	1457.5	2.59
298.15 K, x2 = 0.8957	1460.7	1.54
303.15 K, x2 = 0.0917	1427.6	31.13
303.15 K, x2 = 0.1933	1428.8	24.16
303.15 K, x2 = 0.2995	1430.7	17.86
303.15 K, x2 = 0.5094	1434.6	7.75
303.15 K, x2 = 0.5976	1436.5	5.52
303.15 K, x2 = 0.6947	1439.7	3.21
303.15 K, x2 = 0.7981	1443.5	2.38
303.15 K, x2 = 0.8957	1446.8	1.44
308.15 K, x2 = 0.0917	1416	26.42
308.15 K, x2 = 0.1933	1417.8	20.62
308.15 K, x2 = 0.2995	1419.1	15.36
308.15 K, x2 = 0.5094	1422.7	6.9
308.15 K, x2 = 0.5976	1424.4	4.98
308.15 K, x2 = 0.6947	1426.9	2.99
308.15 K, x2 = 0.7981	1429.7	2.19
308.15 K, x2 = 0.8957	1432.8	1.34
313.15 K, x2 = 0.0917	1404.6	22.67
313.15 K, x2 = 0.1933	1406.5	17.78
313.15 K, x2 = 0.2995	1408	13.34
313.15 K, x2 = 0.406	1409.7	9.57
313.15 K, x2 = 0.5094	1411	6.18
313.15 K, x2 = 0.6947	1414.6	2.78
313.15 K, x2 = 0.8957	1419.2	1.25
318.15 K, x2 = 0.406	1398.7	8.46
318.15 K, x2 = 0.5094	1399.7	5.57
318.15 K, x2 = 0.5976	1400.4	4.1
318.15 K, x2 = 0.7981	1403.5	1.88
318.15 K, x2 = 0.8957	1405.3	1.18
323.15 K, x2 = 0.0917	1382.3	17.12
323.15 K, x2 = 0.1933	1384	13.56
323.15 K, x2 = 0.2995	1386	10.31
323.15 K, x2 = 0.406	1387.4	7.53
323.15 K, x2 = 0.5094	1388	5.05
323.15 K, x2 = 0.5976	1388.9	3.75
323.15 K, x2 = 0.7981	1390.6	1.75
323.15 K, x2 = 0.8957	1392.1	1.11

CC[n+]1ccn(C)c1.O=S(=O)([O-])C(F)(F)F + OCCO
Conditions	speed of sound [m/s]	viscosity [mPa·s]
298.15 K, x2 = 0.0943	1446	36.77
298.15 K, x2 = 0.2021	1453.2	29.22
298.15 K, x2 = 0.2937	1457.1	24.13
298.15 K, x2 = 0.408	1464.6	20.68
298.15 K, x2 = 0.5013	1473.4	18.72
298.15 K, x2 = 0.6019	1488.5	17.52
298.15 K, x2 = 0.6917	1510.9	16.97
298.15 K, x2 = 0.8964	1586.6	16.51
303.15 K, x2 = 0.2021	1442.1	24.77
303.15 K, x2 = 0.2937	1445.9	20.6
303.15 K, x2 = 0.408	1453.3	17.93
303.15 K, x2 = 0.5013	1462.1	16.38
303.15 K, x2 = 0.6019	1477.2	15.41
303.15 K, x2 = 0.6917	1499.5	14.89
303.15 K, x2 = 0.798	1532.6	14.39
303.15 K, x2 = 0.8964	1575.1	13.74
308.15 K, x2 = 0.0943	1423.9	26.23
308.15 K, x2 = 0.2021	1430.9	21.17
308.15 K, x2 = 0.2937	1434.8	17.74
308.15 K, x2 = 0.408	1442.2	15.7
308.15 K, x2 = 0.5013	1451	14.49
308.15 K, x2 = 0.6917	1488.2	13.23
308.15 K, x2 = 0.798	1521.5	12.63
313.15 K, x2 = 0.0943	1412.8	22.47
313.15 K, x2 = 0.2021	1419.9	18.26
313.15 K, x2 = 0.2937	1423.8	15.41
313.15 K, x2 = 0.5013	1439.9	12.93
313.15 K, x2 = 0.6019	1454.8	12.31
313.15 K, x2 = 0.6917	1477	11.88
313.15 K, x2 = 0.798	1509.9	11.22
313.15 K, x2 = 0.8964	1552.1	10.22
318.15 K, x2 = 0.2021	1409.1	15.91
318.15 K, x2 = 0.2937	1412.9	13.52
318.15 K, x2 = 0.408	1420.2	12.38
318.15 K, x2 = 0.5013	1428.8	11.66
318.15 K, x2 = 0.6019	1443.7	11.17
318.15 K, x2 = 0.6917	1465.7	10.76
318.15 K, x2 = 0.798	1498.5	10.07
318.15 K, x2 = 0.8964	1540.6	8.97
323.15 K, x2 = 0.2937	1402	11.94
323.15 K, x2 = 0.5013	1417.9	10.58
323.15 K, x2 = 0.6019	1432.7	10.2
323.15 K, x2 = 0.6917	1454.6	9.84
323.15 K, x2 = 0.798	1487.2	9.13
323.15 K, x2 = 0.8964	1529.1	7.95
